The target of the assay is T1, Neutrophil elastase (Homo sapiens, UniProt P08246).
T1 sequence (P08246 whole entry): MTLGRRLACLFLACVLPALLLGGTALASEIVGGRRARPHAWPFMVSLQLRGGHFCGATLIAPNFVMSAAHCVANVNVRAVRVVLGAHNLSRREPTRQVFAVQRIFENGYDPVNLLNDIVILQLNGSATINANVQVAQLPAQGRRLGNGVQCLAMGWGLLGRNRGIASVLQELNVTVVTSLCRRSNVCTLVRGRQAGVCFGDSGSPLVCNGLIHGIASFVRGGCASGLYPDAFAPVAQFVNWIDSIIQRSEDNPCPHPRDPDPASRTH
The experiment in a line: Inhibition of human neutrophil elastase.

As for `CC1(C)C2CC[C@]1(C)C(OC(=O)/C=C/c1ccc(O)c(O)c1)C2` (some centres not stated), the IC50 – broadly, the concentration at which inhibition is half-maximal – was found to be 1.56 µM.

In turn, `CC1(C)C2CC[C@]1(C)C(OC(=O)/C=C/c1cc(O)c(O)c(O)c1)C2` (some centres not stated) returned an IC50 of 0.54 µM.

For the origin of these results see ChEMBL document CHEMBL1144036, “Bornyl (3,4,5-trihydroxy)-cinnamate--an optimized human neutrophil elastase inhibitor designed by free energy calculations” (Bioorg Med Chem, 2008).
